From patent US10011570B2, “Nucleic acid binding dyes with improved safety” (Biotium, Inc., priority 2013, dated 2018)

Legend:
[1] = system: HeLa cells; assay: Live cell staining (cell membrane permeability, confocal microscopy); format: cell-based, human; settings: for cell staining after 5 minutes incubation / cell staining after 30 minutes incubation: HeLa cells, 37 C, dyes at 0.65 uM, Sybr Safe at 1×; for cellular staining of live cells (cell membrane permeability): normal working concentration used in gel staining, time not stated (FIG. 12)
Method: Dye No. 4, Dye No. […] and SYBR Safe are tested for their cell membrane permeability. HeLa cells were incubated with 1× Sybr Safe, 0.65 uM Dye No 4 and 0.65 uM Dye No. 11 in cell culture medium at 37 C. Hoechst 33342 (1 ug/mL) was included to stain DNA with blue fluorescence. Cells were imaged after 5 minutes and 30 minutes incubation on the appropriate fluorescence channel (FITC for Sybr Safe and Dye No. 4, and Cy3 for Dye No. […]) on a Zeiss LSM 700 confocal microscope. […] Hoechst staining for the same microscopic field is shown below each image (D-F, J-L).

[2] = system: 1 kb DNA ladder in 1% agarose gel; assay: Post staining of agarose gels; settings: 0.65 uM dye in water, 30 minutes, 1 kb DNA ladder 200-25 ng per lane
Method: Two-fold dilutions of 1 kb DNA ladder (Biotium, 200 ng-25 ng) or low-molecular weight DNA ladder (NEB, 50-12.5 ng/lane) were separated on 1% agarose/1×TBE gels in 1× TBE at 110 V for 90 minutes. Gels were post-stained with dyes at indicated concentrations in 50 mL staining solution with rocking for 30 minutes at room temperature, protected from light. The staining solutions were prepared by adding a dye stock solution in DMSO to water. […] In particular, dyes of the invention can readily penetrate dense polyacrylamide gels. […] Use of low dye concentration in the staining, coupled with the dyes' low cell membrane permeability (See below), makes the dyes safer to handle. Compound 25 of U.S. Pat. No. 7,446,202 is an asymmetric cyanine dye comprising a negatively charged substituent. The dye is described to be a sensitive dsDNA binding dye useful for selective dsDNA quantitation in solution. In this experiment, this dye is compared with the asymmetric cyanine dye Dye No. 4 of the present invention in detecting dsDNA in agarose gel. 1 kb DNA ladder (Biotium) was loaded on a 1% agarose/1×TBE gel at 200, 100, 50, or 25 ng per lane in duplicate and separated by electrophoresis at 100V. […]

[3] = system: Pimephales promelas (Fathead minnow); assay: California Title 22 toxicity test for hazardous waste characterization; format: in vivo; settings: 0.65 uM dye solution in water, aquatic life
Method: (§1) Stock solutions of Dye No. 11 and Dye No. 4 at 0.65 uM each in water were submitted to Nautilus Environmental (San Diego, Calif.) for California Title 22 toxicity testing for hazardous waste characterization. The solutions were tested at 750, 500, and 250 mg/L plus lab control in Pimephales promelas (Fathead minnow) in two replicates of 10 fish each according to the California Department of Fish and Game 1988 Acute Procedures.

[4] = as above; format: in vivo, Pimephales promelas; settings: Pimephales promelas (fathead minnow), in vivo; 0.65 uM dye solution in water tested at 750, 500 and 250 mg/L, Fathead minnow; read-out: median lethal concentration (LC50)
Method: as §1

[5] = system: Calf Thymus DNA; RNA; assay: Nucleic acid detection in solution (fluorescence titration); format: binding; settings: 2 uM Dye No. 4 or 1.3 uM Compound 25 in TE buffer, fluorescence microplate reader
Method: Compound 25 of U.S. Pat. No. 7,446,202 and Dye No. 4 were compared in nucleic acid detection in solution. Calf Thymus DNA (Sigma) was used to titrate 2 uM Dye No. 4 or 1.3 uM Compound 25 of U.S. Pat. No. 7,446,202 in TE buffer. The fluorescence of the solution was measured on a fluorescence microplate reader (200 uL volume/well and 5 minutes incubation time). Same optical setting was used for both dyes as the two dyes have nearly identical spectral profile.

[6] = system: 1 kb DNA ladder in 1% agarose TBE gels; assay: Prestaining of agarose gels; settings: dye mixed with DNA in loading buffer, compared with propidium iodide
Method: Two-fold dilutions of 1 kb DNA ladder (200 ng-25 ng per lane) were mixed with propidium iodide (PI) or Dye No, 10 in DNA loading buffer at the final concentrations indicated and separated on 1% agarose TBE gels containing no additional DNA dye.

| Compound | cell staining after 5 minutes incubation [1] | cell staining after 30 minutes incubation [1] | cellular staining of live cells (cell membrane permeability) [1] | signal of stained gel compared with Compound 25 [2] | classification under CCR Title 22 regulations [3] | LC50 [4] [µg/mL] | nucleic acid binding profile (dsDNA versus RNA) [5] | brightness in prestaining of gels [6] |
| --- | --- | --- | --- | --- | --- | --- | --- | --- |
| C[n+]1c(C=C2C=CN(CCCSCC(N)C(=O)[O-])c3ccccc32)sc2ccccc21.I (stereo not shown) [Dye No. 4] | no staining was detectable | no staining was detectable | did not produce any cellular staining at all | significantly higher signal | non-hazardous | > 750 | binds to both dsDNA and RNA | – |
| C[N+](C)(C)CCC[n+]1c(-c2ccc(S(=O)(=O)[O-])cc2)c2cc(N)ccc2c2ccc(N)cc21.[I-] [Dye No. 11] | no staining was detectable | no staining was detectable | did not produce any cellular staining at all | – | non-hazardous | > 750 | – | – |
| CC[N+](C)(CC)CCC[n+]1c(-c2ccc(S(=O)(=O)[O-])cc2)c2cc(N)ccc2c2ccc(N)cc21.[I-] [Dye No. 10] | – | – | – | – | – | – | – | as bright as PI |
